The source of these data is patent US7300946B2, “N-(substituted arylmethyl)-4-(disubstituted methyl) piperidines and pyridines” (Bayer CropScience AG, priority 2002, dated 2007).

The assay relates to tobacco budworm (Heliothis virescens [Fabricius]). Put plainly: surface-treated diet test against the tobacco budworm. In kind it is in vivo. The note with it: tobacco budworm second instar larvae, 0.25 millimoles of candidate insecticide on the surface of the diet, five-day exposure; for Percent Mortality: compared to total number of insects infested; for Percent Growth Inhibition: inhibition of insect weight relative to untreated controls. An outline of the steps: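 Wheat germ artificial diet surface-treated with 40 µL of 50 mM DMSO stock diluted 1:7 in 1:1 water/acetone (0.25 millimolar on diet), or sub-multiples for rate tests. One second-instar larva per well, 25° C, 60% RH, 5 days; percent weight inhibition vs DMSO controls and percent mortality.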

`O=C(Nc1cc(F)cc(F)c1)OC(c1ccc(C(F)(F)F)cc1)C1CC[N+]([O-])(Cc2ccc(Oc3ccc(Cl)cn3)cc2)CC1` (stereo not drawn) [Compound 756]: the “Percent Mortality” value is reported as 100% and the “Percent Growth Inhibition” value stood at 100%.

Turning to `Cn1nnc(-c2ccc(CN3CCC(C(OC(=O)Nc4ccccc4F)c4ccc(OC(F)(F)F)cc4)CC3)cc2)n1` (stereo not drawn) [Compound 272], where the note is “surface-treated diet”, the “Percent Mortality” value amounted to 99% and the “Percent Growth Inhibition” value came out at 100%.

In the case of `CCCOC(=O)Nc1ccc(CN2CCC(=C(c3ccc(C(F)(F)F)cc3)c3ccc(C(F)(F)F)cc3)CC2)cc1` [Compound 57], for the setting “surface-treated diet”, the “Percent Mortality” value is 100% and the “Percent Growth Inhibition” value is 100%.

On to `C#CCON=Cc1ccc(CN2CCC(C(OC(=O)Nc3cc(F)cc(F)c3)c3ccc(C(F)(F)F)cc3)CC2)cc1` (stereo not drawn) [Compound 540], for which, where the note is “surface-treated diet”, the “Percent Mortality” value is 100% and the “Percent Growth Inhibition” value came to 100%.

As to `CCON=Cc1ccc(CN2CCC(C(OC(=O)Nc3cccc(F)c3)c3ccc(Cl)cc3)CC2)cc1` (stereo not drawn) [Compound 524], for the setting “surface-treated diet”, the “Percent Mortality” value was found to be 100% and the “Percent Growth Inhibition” value came to 100%.

`CCNC(=O)Nc1ccc(CN2CCC(C(OC(=O)Nc3cc(F)cc(F)c3)c3ccc(C(F)(F)F)cc3)CC2)cc1` (stereo not drawn) [Compound 517]: where the note is “surface-treated diet”, the “Percent Mortality” value was 0% and the “Percent Growth Inhibition” value is recorded as 86%.

Take `CCn1nnc(-c2ccc(CN3CCC(C(OC(=O)Nc4ccc(Cl)cc4)c4ccc(Oc5ccccc5)cc4)CC3)cc2)n1` (stereo not drawn) [Compound 616]: under “surface-treated diet”, the “Percent Mortality” value is 100% and the “Percent Growth Inhibition” value was determined as 100%.

Take `CCCOc1ccc(CN2CCC(C(OC(=O)Nc3cc(F)cc(F)c3)c3ccc(C(F)(F)F)cc3)CC2)cc1` (stereo not drawn) [Compound 491]: for the setting “surface-treated diet”, the “Percent Mortality” value amounted to 100% and the “Percent Growth Inhibition” value is 100%.

With `O=C(Nc1ccc(Cl)cc1)OC(c1ccc(OC(F)(F)F)cc1)C1CCN(Cc2ccc(Oc3cccc[n+]3[O-])cc2)CC1` (stereo not drawn) [Compound 706], the “Percent Mortality” value worked out at 100% and the “Percent Growth Inhibition” value was 100%.

For `Cn1nnc(-c2ccc(CN3CCC(C(OC(=O)Nc4ccccc4Cl)c4ccc(OC(F)(F)F)cc4)CC3)cc2)n1` (stereo not drawn) [Compound 262], where the note is “surface-treated diet”, the “Percent Mortality” value came to 100% and the “Percent Growth Inhibition” value was 100%.

As for `CC(C)NC(=O)OC(c1ccc(C(F)(F)F)cc1)C1CC[N+]([O-])(Cc2ccc(Oc3ccccn3)cc2)CC1` (stereo not drawn) [Compound 785], the “Percent Mortality” value is 100% and the “Percent Growth Inhibition” value came to 100%.

`CC(C)OC(=O)Nc1ccc(C[N+]2([O-])CCC(C(OC(=O)Nc3cc(F)cc(F)c3)c3ccc(C(F)(F)F)cc3)CC2)cc1` (stereo not drawn) [Compound 746]: the “Percent Mortality” value was 100% and the “Percent Growth Inhibition” value was found to be 100%.

Regarding `COC(=O)c1cccc(NC(=O)OC(c2ccc(Cl)cc2)C2CCN(Cc3ccc(Oc4ccccn4)cc3)CC2)c1` (stereo not drawn) [Compound 638], for the setting “surface-treated diet”, the “Percent Mortality” value was found to be 100% and the “Percent Growth Inhibition” value came to 100%.

For `Fc1ccccc1Oc1ccc(CN2CCC(=C(c3ccc(C(F)(F)F)cc3)c3ccc(C(F)(F)F)cc3)CC2)cc1` [Compound 806], the “Percent Mortality” value came out at 0% and the “Percent Growth Inhibition” value turned out to be 100%.

Regarding `O=C(NC1CCCC1)OC(c1ccc(C(F)(F)F)cc1)C1CCN(Cc2ccc(Oc3ccccn3)cc2)CC1` (stereo not drawn) [Compound 781], the “Percent Mortality” value turned out to be 100% and the “Percent Growth Inhibition” value came to 100%.

As to `Cn1nnc(-c2ccc(CN3CCC(C(NCc4cccc(F)c4)c4ccc(OC(F)(F)F)cc4)CC3)cc2)n1` (stereo not drawn) [Compound 314], for the setting “surface-treated diet”, the “Percent Mortality” value came to 100% and the “Percent Growth Inhibition” value amounted to 100%.

For `CCON=Cc1ccc(CN2CCC(C(OC(=O)Nc3cccc(Cl)c3Cl)c3ccc(C(F)(F)F)cc3)CC2)cc1` (stereo not drawn) [Compound 188], where the note is “surface-treated diet”, the “Percent Mortality” value is recorded as 100% and the “Percent Growth Inhibition” value was 100%.

As to `CCON=Cc1ccc(CN2CCC(C(OC(=O)Nc3ccc(Cl)cc3Cl)c3ccc(C(F)(F)F)cc3)CC2)cc1` (stereo not drawn) [Compound 190], where the note is “surface-treated diet”, the “Percent Mortality” value worked out at 100% and the “Percent Growth Inhibition” value amounted to 100%.
